Experimental data reported in patent US20230140200A1, “COMPOSITIONS AND METHODS FOR DETECTING CELLS UNDERGOING FERROPTOSIS USING AN ANTIBODY” (THE TRUSTEES OF COLUMBIA UNIVERSITY IN THE CITY OF NEW YORK, priority 2020, published 2023).

Assays:
HT-1080 cells [1] = assay: Nuclear shrinkage by immunofluorescence (DAPI nuclei, CellProfiler); assay type: cell-based, human; conditions: vs DMSO
HT-1080 cells [2] = assay: Immunofluorescence staining of treated cells, quantification of membrane intensity; assay type: cell-based, human; conditions: 8 h
HT-1080 cells [3] = assay: Machine-learning training image set, TfR1 membrane fluorescence intensity; assay type: cell-based, human; conditions: fixed at 10-20% cell death
Method: Immunofluorescence (IF). HT-1080 cells were treated with 1 μM RSL3, 20 μM IKE, or 1 μM STS on poly-lysine-coated coverslips (Sigma Aldrich P4832) in 24-well plates. […] The cells were fixed and permeabilized with 4% PFA in PBS with 0.1% Triton X-100 (PBT), with 200 μL per well. The plates were covered with foil, and the cells were incubated and shaken at room temperature for 15-20 min. The PFA was disposed of safely, and the cells were washed with PBT three times. The cells were blocked with 5% normal goat serum (NGS) (ThermoFisher 50197Z) in PBT for 1 h at room temperature. The cells were then incubated with mouse 3F3 anti-Ferroptotic Membrane Antibody (3F3-FMA) at 1:500 dilution in PBT with 1% bovine serum albumin (BSA) and 5% NGS at 4° C. overnight. The cells were washed with PBT for 5 min three times. The cells were then incubated with goat anti-mouse IgG (H+L) Highly Cross-Adsorbed Secondary Antibody, Alexa Fluor 594 (Thermo Fisher Scientific Cat #A-11032, RRID:AB_2534091) at 1:200 dilution and FITC-phalloidin at 1:1000 dilution in PBT with 1% BSA for 1 h at room temperature. […]
Automated image analysis. […] Nuclei were detected via the DAPI signal. […] In a next step, morphology/symmetry features, texture (SER features) and intensity properties of the DAPI, FITC and red channel were calculated for each cell region (nuclei, cytoplasm, and membrane). […]

TfR1 mRNA = assay: qPCR of TfR1 transcripts; assay type: cell-based, human; conditions: 8 h, HT-1080 cells
Method: HT-1080 cells were seeded in 6-well plates at a density of 400 k cells/well and incubated overnight. The following day, IKE or RSL3 were diluted into wells from stock solutions and treated for indicated time periods. Following treatment, cells were rinsed in cold PBS, trypsinized, and pelleted in Eppendorf tubes. RNA was isolated from cell pellets using Qiagen's RNeasy extraction kit, following manufacturer's instructions (Qiagen). RNA quantity and quality was evaluated by a nanodrop spectrophotometer (Thermo Fisher Scientific). cDNA was generated from 2 μg of total RNA, which was then diluted ten-fold and used as a template in qPCR reactions on a Viia7 Real-Time system. Gene specific primers were used as follows: TfR1 FW: 5′ […] 3′ (SEQ ID No: 18); TFR1 RV: 5′ […] 3′ (SEQ ID No: 19); GAPDH FW: 5′ […] 3′ (SEQ ID No: 20); GAPDH RV: 5′ […] 3′ (SEQ ID No: 21).

OCI-LY7 cells = assay: C11-BODIPY lipid ROS flow cytometry; assay type: cell-based; conditions: 5 μM PE, 19 h at 37° C.
Method: 6 L of media (1% Pen-Strep 10% FBS and 89% RPMI with L-glutamine) containing 400 million OCI-LY7 (DSMZ Cat #ACC-688, RRID:CVCL_1881) cells/L were treated with 5 μM PE (piperazine erastin). Cells were incubated for 19 h at 37° C., then production of lipid ROS was confirmed using BODIPY-C11 by flow cytometry. Ferroptotic cells were pelleted in centrifuge at 1000 rpm for 10 min at 25° C. Cells were resuspended in 1 mL lysis buffer with a pan-protease inhibitor, lysed using a dounce homogenizer. 70% cell lysis was confirmed by microscope. Pellet containing the nuclear fraction and unlysed cells was obtained by centrifuge at 700×g for 10 min at 4° C. Supernatant was spun at 700×g for 10 min at 4° C. Supernatant was then transferred to a new tube and placed in centrifuge at 10,000×g for 45 min at 4° C. Pellet consisting of total membrane was resuspended in upper phase solution. Lower phase was added and mixture was incubated on ice for 5 min. Mixture was spun at 1000×g for 5 min at 4° C. […]
Cells were resuspended in […] HBSS containing 2 μM C11-BODIPY (BODIPY 581/591 C11) (Thermo Fisher Scientific, D3861) and incubated at 37° C. for 15 min. […] Fluorescence intensity was measured on the FL1 channel with gating to record live cells only (gate constructed from DMSO treatment group). A minimum of 10,000 cells were analyzed per condition. […]

HT-1080 cells [4] = assay: Cell death after RSL3 incubation; assay type: cell-based, human; conditions: 1 μM, 4 h incubation
HT-1080 cells [5] = assay: High-content analysis of nucleus area; assay type: cell-based, human; conditions: RSL3 group vs DMSO group
Method: For the screening with five technical replicates, HT-1080 cells were washed with PBS, trypsinized and resuspended in cell culture medium. The cell suspension (2,000 cells in 50 μl per well) was dispensed into collagen (Sigma-Aldrich, St. Louis, Mass., USA) pre-coated 384-well plates (PerkinElmer 384-well CellCarrierUltra™). 24 h after seeding, medium was exchanged to medium containing 0.3 μM RSL3 (1 mM stock solution) dissolved in 100% dimethyl sulfoxide (DMSO) or DMSO alone. 50 μl medium with 0.3 μM RSL3/DMSO was added per well. The cells were then incubated (37° C.; 5% CO2) for 2.5 h prior to fixation and antibody staining. […] Finally, plates were recorded using the automated Operetta® microscope with the 20× high NA objective for high-resolution images (PerkinElmer, USA). For quantification, three images of each condition were recorded using three channels (Hoechst, Alexa488, TRITC). […] Quantification on cell number, cytoplasmic intensity, nucleus intensity and spot number per cell was performed using the Columbus Software (PerkinElmer, USA).
Multiparametric image analysis was performed using Columbus Software 2.8.0 (PerkinElmer). […] In a next step we have calculated the morphology and Alexa488 fluorescence intensity in each cell region (nucleus and cytoplasm). […] Each spot was detected as a small region within the corresponding image by having a higher intensity than its surrounding area. […]

O=S(=O)(NC1CCCCC1)c1ccc2c(c1)C(=NO)c1cc(S(=O)(=O)NC3CCCCC3)ccc1-2 [FIN56, ferroptosis inducer 56, reference compound]
nuclei shrank (mean nucleus area) (HT-1080 cells [1]; 10 μM, 8 h incubation): 17%
change of 3F3-FMA staining pattern caused by inducer (HT-1080 cells [2]; 10 μM): same changes of 3F3-FMA pattern were observed

CC1(CCO)CC2(CCC(C(C)(C)C)CC2)OO1 (stereo not drawn) [FINO2, ferroptosis inducer endoperoxide, reference compound]
nuclei shrank (mean nucleus area) (HT-1080 cells [1]; 15 μM, 8 h incubation): 49%
change of 3F3-FMA staining pattern caused by inducer (HT-1080 cells [2]; 15 μM): same changes of 3F3-FMA pattern were observed

CC(C)Oc1ccc(C(=O)Cn2ccnc2)cc1-n1c(CN2CCN(C(=O)COc3ccc(Cl)cc3)CC2)nc2ccccc2c1=O [IKE, imidazole ketone erastin]
nuclei shrank (mean nucleus area) (HT-1080 cells [1]; 10 μM, 8 h incubation): 12%
TfR1 membrane fluorescence intensity after treatment (HT-1080 cells [3]; 20 μM): significant increase
level of TfR1 mRNAs (TfR1 mRNA; 10 μM): didn't increase
change of 3F3-FMA staining pattern caused by inducer (HT-1080 cells [2]; 10 μM): same changes of 3F3-FMA pattern were observed

CC(C)Oc1ccc(CN2CCNCC2)cc1-n1c(CN2CCN(C(=O)COc3ccc(Cl)cc3)CC2)nc2ccccc2c1=O [PE, piperazine erastin]
lipid peroxides (C11-BODIPY fluorescence) (OCI-LY7 cells): increase in lipid peroxides

COC(=O)c1ccc([C@@H]2c3[nH]c4ccccc4c3C[C@@H](C(=O)OC)N2C(=O)CCl)cc1 [RSL3, (1S, 3R)-RSL3]
HT-1080 cells died (HT-1080 cells [4]): 30%
nuclei shrank (mean nucleus area) (HT-1080 cells [1]; 1 μM, 4 h incubation): 27%
TfR1 membrane fluorescence intensity after treatment (HT-1080 cells [3]; 1 μM): significant increase
decrease of average nucleus area (HT-1080 cells [5]): 17%
level of TfR1 mRNAs (TfR1 mRNA; 1 μM): didn't increase

CC(C)(C)OO [tBuOOH, reference compound]
change of 3F3-FMA staining pattern caused by inducer (HT-1080 cells [2]; 100 μM): same changes of 3F3-FMA pattern were observed
